# Laboratory results taken from patent publication US12150927B2, “Use of cannabidiolic acid in the treatment of autism spectrum disorder and associated disorders” (GW Research Limited, priority 2016, dated 2024).
# Values joined by “and” are separate entries in the source; they are usually repeats but may differ in a detail not shown here. Equal values may be shown once.
# Experiments:
# [1] = tested on: MeCP2 KO and WT mice; test: Survival, mouse model of Rett syndrome; assay type: in vivo
# Experimental: (§1) CBDA was administered daily at the dose of 2 or 20 mg/kg i.p. starting from PND 28 and the following signs were scored every other day: hindlimb clasping (indication of motor imbalance), tremor, gait (measure of coordination), breathing, mobility and general condition.
# (§2) The CBDA was dissolved in ethanol, cremophor and saline (1:1:18). Starting from PND 28, mice received a daily intraperitoneal injection of CBDA (or vehicle) at the dose of 2 or 20 mg/kg. Animals were then scored every other day to evaluate the effect of CBDA treatment on motor symptoms (hindlimb clasping, gait, mobility) as well as neurological signs and general conditions (breathing abnormalities, tremors and general condition) present in MeCP2 knockout (KO) mice.
# [2] = tested on: Fmr1 KO mice; test: Novel object recognition task, mouse model of fragile X syndrome; assay type: in vivo
# Experimental: Fmr1 KO mice and wild type mice were obtained and housed four per cage in a temperature of 21° C.±1° C. and humidity of 55%±10% controlled environment. Food and water were available ad libitum. All experiments were performed during the light phase of a 12 hour light/dark cycle (08:00 to 20:00). Animals were handled for one week before the start of experiments. All behavioural tests were performed by researchers blind to the different experimental groups.
# On day one mice were habituated for 10 minutes to the empty V-maze in which the task was to be performed. On the second day the mice went back to the maze for 10 minutes which contained two identical objects at the end of each corridor in the V-maze.
# The following day the mice were placed again in the same maze for a further 10 minutes but one of the familiar objects was replaced for a novel object. The total time spent exploring the novel and familiar object was recorded. A discrimination index was calculated as the difference between the time spent exploring the novel and familiar object divided by the total time exploring the two objects. A high discrimination index (0.3-0.5) is considered to reflect memory retention for the familiar object.
# Adult mice […] were treated either acutely with one dose of 20 mg/kg CBDA on PND 21 for 7 consecutive days. Mice were evaluated in the novel object recognition task after the first and sixth day of CBDA administration.
# [3] = tested on: MeCP2 KO mice; test: Body weight gain, mouse model of Rett syndrome; assay type: in vivo; details: CBDA 2 and 20 mg/kg i.p. daily, PND 28-66, FIG. 5
# Experimental: as §1, §2
# [4] = tested on: Fmr1 KO and WT mice (PND21); test: Susceptibility to audiogenic seizures; assay type: in vivo
# Experimental: This trait was evaluated in PND21 mice after acute administration of the compounds or its vehicle, 30 min before starting the procedure. To measure audiogenic seizure sensitivity mice were placed individually into a novel environment, a glass cylinder (40 cm high, 16 cm diameter) and allowed to explore for 1 min. Next, a bell (100 dB) was rung for 30 see and seizure activity scored according to the following scale: no response, 0; wild running, 1; clonic seizure, 2; tonic seizure, 3; status epilepticus/respiratory arrest/death, 4.
# On postnatal day 21 (PND21) WT and Fmr1 KO mice were injected with CBDA (20 mg/kg) or vehicle, 30 min before exposure to a bell ring (100 dB). Mice exposed to this noise for 30 see ceased from their normal exploratory behaviour and reacted with gradually to wild-running, clonic seizure, tonic seizure or death. The maximum response was annotated for each mouse as detailed in Table 2 below. A score was calculated according to the severity of the symptoms as explained in the Methods section.
# [5] = tested on: offspring of VPA-exposed rats; test: Sociability and preference for social novelty, 3-chamber apparatus, rat VPA model; assay type: in vivo, Sprague-Dawley rats
# Experimental: Pregnant Sprague-Dawley rats (Charles River, Calco, Italy), received a single intraperitoneal injection of 500 mg/kg sodium valproate on the 12.5 day after conception, and control females were injected with physiological saline at the same time. Sodium valproate (Sigma Aldrich, Milan, IT) was dissolved in saline at a concentration of 250 mg/ml.
# CBDA was dissolved in ethanol, cremophor and saline (1:1:18). Symptomatic treatment with CBDA at doses of 2 and 20 mg/kg/day i.p. was performed starting from PND 34 (early adolescence) till 56 (early adulthood), both in male and female offspring of dams injected with VPA 500 mg/kg (or vehicle) on day 12.5 after conception. At PND 56, a series of behavioural tests was performed in order to assess the effect of chronic CBDA on sociability, social novelty, short-term memory, locomotion and stereotyped/repetitive behaviours.
# Sociability and preference for social novelty: These behaviours were investigated in a 3-chamber apparatus which allows for the measurement of social approach and social preference. In brief, animals were placed into a novel arena (80 cm×31.5 cm) composed of three communicating chambers separated by Perspex walls with central openings allowing access to all chambers for 5 min.
# Following this acclimatisation period, animals were briefly confined to the central chamber while an unfamiliar rat confined in a small wire cage was placed in one of the outer chambers. An identical empty wire cage was placed in the other chamber. […] Time spent engaging in investigatory behaviour with the rat was evaluated with the aid of Anymaze program (Ugo Basile, Italy) in order to examine social approach.
# To investigate the preference for social novelty, a novel unfamiliar rat was then placed in the empty cage and the test animal was then allowed to explore the arena/chambers for a further 5 min. Time spent engaging in investigatory behaviour with the novel unfamiliar rat was evaluated with the aid of Anymaze program (Ugo Basile, Italy) in order to examine preference for social novelty.
# [6] = tested on: animal models of seizure; details: co-pending UK patent application GB1514079.1; cited from earlier work
# [7] = FXS (Fmr1 KO) mice PND21, n = 5, CBDA 20 mg/kg acute (30 min)
# [8] = WT mice PND21, n = 6, CBDA 20 mg/kg acute (30 min)
smiles,measurement,setting,value
"C=C(C)[C@@H]1CCC(C)=C[C@H]1c1c(O)cc(CCCCC)c(C(=O)O)c1O [CBDA, Cannabidiolic acid]",survival rate,"[1]; MeCP2 KO mice, chronic CBDA 20 mg/kg i.p., PND 67 (vehicle KO 57.14%), FIG. 6",85.14% and 85%
same,lethality,[1]; WT mice treated with CBDA (2 and 20 mg/kg i.p. daily),No lethality
same,discrimination index level,[2]; Fmr1 KO mice treated with CBDA over 7 days,0.32
same,discrimination index,"[2]; acute treatment, CBDA 20 mg/kg, Fmr1 KO mice vs KO vehicle, FIG. 3","increase the discrimination index slightly over that of the knockout mice administered vehicle, however this was not significant"
same,discrimination index (effect vs vehicle),"[2]; chronic treatment, once daily for 7 days, CBDA 20 mg/kg, Fmr1 KO mice, FIG. 4",statistically significant increase in the discrimination index
same,body weight gain,[3],did not prevent the reduction in body weight
same,number of mice with maximum response: Clonic seizure,[4]; [7],0
same,number of mice with maximum response: Death,[4]; [7],0
same,number of mice with maximum response: No response,[4]; [7],2
same,number of mice with maximum response: Tonic seizure,[4]; [7],1
same,number of mice with maximum response: Wild running,[4]; [7],2
same,seizure severity,"[4]; FXS mice, CBDA 20 mg/kg, 30 min before 100 dB bell, vs vehicle",either no seizures or seizures of lower severity
same,number of mice with maximum response: Clonic seizure,[4]; [8],0
same,number of mice with maximum response: Death,[4]; [8],0
same,number of mice with maximum response: No response,[4]; [8],6
same,number of mice with maximum response: Tonic seizure,[4]; [8],0
same,number of mice with maximum response: Wild running,[4]; [8],0
same,preference index,"[5]; CBDA 20 mg/kg/day i.p. PND 34-56, VPA rats, FIG. 1C",significantly counteracted the impairment in sociability
same,social novelty preference,"[5]; CBDA 20 mg/kg/day i.p. PND 34-56, male VPA rats, FIG. 1A",statistically significant effect in males on restoration of social novelty preference
same,sociability,"[5]; CBDA at both doses (2 and 20 mg/kg/day i.p.) PND 34-56, VPA rats, FIG. 1B",significantly reduced the impairment in sociability
same,efficacy in animal models of seizure,[6],effective in animal models of seizure
